Here are results for 13 molecules from patent publication US9580390B2, “Indazole compounds as kinase inhibitors and method of treating cancer with same” (University Health Network, priority 2011, dated 2017).

By GI50 is commonly meant the concentration giving 50% growth inhibition. The IC50 is the concentration at which inhibition is half-maximal.

The test system of experiment [1] is ovarian cancer cells (PA-1). In words: Cancer cell line growth inhibition (SRB assay). The format is cell-based. The settings on record: Homo sapiens, PA-1; read-out: Cancer Cell Line GI50 Range PA-1. (Sulforhodamine B stains cellular protein and so reports cell mass.)
Another experiment has as its system TICs (Colon 12). In words: Colon tumor-initiating cell growth inhibition (Alamar Blue). Format: cell-based. Conditions: 216 h; Colon 12 TICs, 9 days; read-out: Tumor Initiating Cell GI50 Range Colon 12.
The subject of experiment [2] is colon cancer cells (HCT116). In words: Cancer cell line growth inhibition (SRB assay). Format: cell-based. Conditions: Homo sapiens, HCT-116; read-out: Cancer Cell Line GI50 Range HCT116.
The subject of another experiment is TICs (Ovarian 2393A). In words: Ovarian tumor-initiating cell growth inhibition (Alamar Blue). Format: cell-based. The settings on record: 144 h; Ovarian 2393A TICs, 6 days; read-out: Tumor Initiating Cell GI50 Range Ovarain 2393A. In general terms: The colour change of resazurin is a common sign of viable cells or microbes.
In the next experiment the target is T1, human TTK (Homo sapiens, UniProt P33981).
T1 construct: amino terminal GST fusion of full length human TTK; purchased Invitrogen
T1 sequence (P33981 1-857): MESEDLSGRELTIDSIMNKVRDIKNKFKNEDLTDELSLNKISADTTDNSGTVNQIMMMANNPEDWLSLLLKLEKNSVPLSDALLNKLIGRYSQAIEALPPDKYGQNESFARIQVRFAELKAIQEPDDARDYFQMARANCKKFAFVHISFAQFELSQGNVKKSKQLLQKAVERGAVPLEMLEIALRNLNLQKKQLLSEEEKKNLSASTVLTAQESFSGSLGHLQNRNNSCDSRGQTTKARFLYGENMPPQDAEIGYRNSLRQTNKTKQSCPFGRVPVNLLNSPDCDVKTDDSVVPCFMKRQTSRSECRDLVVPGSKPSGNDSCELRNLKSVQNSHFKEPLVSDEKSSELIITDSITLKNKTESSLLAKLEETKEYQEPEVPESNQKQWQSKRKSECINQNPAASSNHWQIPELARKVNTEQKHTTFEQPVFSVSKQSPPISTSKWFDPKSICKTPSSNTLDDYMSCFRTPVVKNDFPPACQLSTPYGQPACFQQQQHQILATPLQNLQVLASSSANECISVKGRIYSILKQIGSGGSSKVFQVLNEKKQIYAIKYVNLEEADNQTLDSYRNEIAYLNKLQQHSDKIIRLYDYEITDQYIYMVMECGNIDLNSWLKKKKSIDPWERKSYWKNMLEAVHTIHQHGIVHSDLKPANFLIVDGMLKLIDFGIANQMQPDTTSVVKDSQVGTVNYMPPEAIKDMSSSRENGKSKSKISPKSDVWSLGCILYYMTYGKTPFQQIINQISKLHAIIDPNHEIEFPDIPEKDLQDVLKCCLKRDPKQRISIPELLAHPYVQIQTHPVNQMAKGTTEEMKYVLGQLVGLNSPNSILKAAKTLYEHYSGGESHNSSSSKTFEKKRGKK
In words: TTK inhibition assay (indirect ELISA). The format is biochemical. The settings on record: read-out: TTK IC50 Range.

The next experiment has as its system Breast cancer cells. In words: Cancer cell line growth inhibition (SRB assay). The format is cell-based. The settings on record: Homo sapiens; MDA-MB-468; read-out: Cancer Cell Line GI50 Range MDA-MB-468.

Turning to `CC(C)C(NC(=O)c1ccc2[nH]nc(-c3ccc(O[C@H]4C[C@H]5CC[C@@H](C4)N5C4COC4)cc3)c2c1)c1ccccn1` (stereo partly drawn) [Example A325, N-(2-methyl-1-(pyridin-2-yl)propyl)-3-(4-(((1R,3R,5S)-8-(oxetan-3-yl)-8-azabicyclo[3.2.1]octan-3-yl)oxy)phenyl)-1H-indazole-5-carboxamide], the concentration for 50% growth inhibition (GI50) was 100 to 500 nM in experiment [1]; less than 100 nM with TICs (Colon 12); 100 to 500 nM in experiment [2]; 100 to 500 nM in the experiment with TICs (Ovarian 2393A); 100 to 500 nM with Breast cancer cells. Also, the IC50 at human TTK was less than 100 nM.
In the case of `CC(C)C[C@H](NC(=O)c1ccc2[nH]nc(-c3ccc(N4C5CCC4CC(O)C5)cc3)c2c1)c1ccccc1` (stereo partly drawn) [Example A368, 3-(4-((1R,3S,5S)-3-hydroxy-8-azabicyclo[3.2.1]octan-8-yl)phenyl)-N-((S)-3-methyl-1-phenylbutyl)-1H-indazole-5-carboxamide], the GI50 in experiment [1] was less than 100 nM; in the experiment with TICs (Colon 12) it was less than 100 nM; in experiment [2], less than 100 nM; with TICs (Ovarian 2393A) it was 100 to 500 nM; in the experiment on Breast cancer cells, 100 to 500 nM. Besides, on human TTK, the IC50 is less than 100 nM.
Consider `CC(C)CC(NC(=O)c1ccc2[nH]nc(-c3ccc(O[C@H]4C[C@H]5CC[C@@H](C4)N5C=O)cc3)c2c1)c1ccccn1` (stereo partly drawn) [Example A339], for which the GI50 (in experiment [1]; in the experiment on TICs (Colon 12); in experiment [2]; with TICs (Ovarian 2393A); in the experiment with Breast cancer cells) was less than 100 nM in each case. Further, the IC50 at human TTK was less than 100 nM.
For `CC1=CC2(CCN(C)CC2)Oc2ccc(-c3n[nH]c4ccc(C(=O)NCC5(N6CCOCC6)CCCCC5)cc34)cc21` [Example A489, 3-(1′,4-dimethylspiro[chromene-2,4′-piperidin]-6-yl)-N-((1-morpholinocyclohexyl)methyl)-1H-indazole-5-carboxamide], the GI50 (in experiment [1]; with TICs (Colon 12); in experiment [2]; with TICs (Ovarian 2393A); in the experiment with Breast cancer cells) was less than 100 nM throughout. For the same molecule, the IC50 on human TTK was less than 100 nM.
As for `CC(C)C(NC(=O)c1ccc2[nH]nc(-c3ccc(O[C@H]4C[C@H]5CCC[C@@H](C4)N5C)cc3)c2c1)c1ccccc1Cl` (stereo partly drawn) [Example A394, N-(1-(2-chlorophenyl)-2-methylpropyl)-3-(4-(((lR,3R,5S)-9-methyl-9-azabicyclo[3.3.1]nonan-3-yl)oxy)phenyl)-1H-indazole-5-carboxamide], the GI50 is 100 to 500 nM in experiment [1]; 100 to 500 nM with TICs (Colon 12); less than 100 nM in experiment [2]; 100 to 500 nM in the experiment on TICs (Ovarian 2393A); 100 to 500 nM with Breast cancer cells. For the same molecule, the IC50 at human TTK was less than 100 nM.
`CC(C)[C@H](NC(=O)c1ccc2[nH]nc(-c3ccc(OC4CCN(C)CC4)c(S(C)(=O)=O)c3)c2c1)c1ccccc1Cl` [Example A259, (S)-N-(1-(2-chlorophenyl)-2-methylpropyl)-3-(4-((1-methylpiperidin-4-yl)oxy)-3-(methylsulfonyl)phenyl)-1H-indazole-5-carboxamide]: the GI50 was less than 100 nM in experiment [1]; 100 to 500 nM in the experiment on TICs (Colon 12); less than 100 nM in experiment [2]; less than 100 nM in the experiment on TICs (Ovarian 2393A); less than 100 nM in the experiment with Breast cancer cells. Moreover, the IC50 at human TTK was less than 100 nM.
Consider `O=C(N[C@H](c1ccccn1)C1CCCC1)c1ccc2[nH]nc(-c3ccc(N4C5CCC4CC(O)C5)cc3)c2c1` (stereo partly drawn) [Example A360, N-((S)-cyclopentyl(pyridin-2-yl)methyl)-3-(4-((1R,3S,5S)-3-hydroxy-8-azabicyclo[3.2.1]octan-8-yl)phenyl)-1H-indazole-5-carboxamide], for which the GI50 (in experiment [1]; with TICs (Colon 12); in experiment [2]; with TICs (Ovarian 2393A); with Breast cancer cells) was less than 100 nM throughout. In addition, the IC50 at human TTK was less than 100 nM.
As for `CC(C)C(NC(=O)c1ccc2[nH]nc(-c3ccc(O[C@H]4C[C@H]5CC[C@@H](C4)N5C)cc3)c2c1)c1ccccc1Cl` (stereo partly drawn) [Example A279, N-(1-(2-chlorophenyl)-2-methylpropyl)-3-(4-(((1R,3R,5S)-8-methyl-8-azabicyclo[3.2.1]octan-3-yl)oxy)phenyl)-1H-indazole-5-carboxamide], the GI50 in experiment [1] is less than 100 nM; with TICs (Colon 12) it was 100 to 500 nM; in experiment [2], less than 100 nM; in the experiment on TICs (Ovarian 2393A), 100 to 500 nM; in the experiment on Breast cancer cells, less than 100 nM. In addition, the IC50 at human TTK was less than 100 nM.
Turning to `O=C(N[C@H](c1ccccn1)C1CCCC1)c1ccc2[nH]nc(-c3ccc(N4CC(C5COC5)C4)cc3)c2c1` [Example A309, (S)-N-(cyclopentyl(pyridin-2-yl)methyl)-3-(4-(3-(oxetan-3-yl)azetidin-1-yl)phenyl)-1H-indazole-5-carboxamide], the GI50 (in experiment [1]; in the experiment with TICs (Colon 12); in experiment [2]; in the experiment on TICs (Ovarian 2393A); in the experiment with Breast cancer cells) was less than 100 nM each time. On human TTK, the IC50 was less than 100 nM.
As for `CCC[C@H](NC(=O)c1ccc2[nH]nc(-c3ccc(OC4CC5CCC(C4)N5C=O)cc3)c2c1)c1ccccc1` (stereo partly drawn) [Example A343, 3-(4-(((1R,3R,5S)-8-formyl-8-azabicyclo[3.2.1]octan-3-yl)oxy)phenyl)-N-((S)-1-phenylbutyl)-1H-indazole-5-carboxamide], the GI50 in experiment [1] is less than 100 nM; in the experiment on TICs (Colon 12) it was less than 100 nM; in experiment [2] it was less than 100 nM; in the experiment with TICs (Ovarian 2393A) it was 100 to 500 nM; in the experiment with Breast cancer cells it was 100 to 500 nM. Also, the IC50 on human TTK was less than 100 nM.
Consider `O=C(NCC1(c2ccccc2)CCOCC1)c1ccc2[nH]nc(-c3ccc(N4[C@@H]5CC[C@H]4COC5)cc3)c2c1` [Example A502, 3-(4-((1R,5S)-3-oxa-8-azabicyclo[3.2.1]octan-8-yl)phenyl)-N-((4-phenyltetrahydro-2H-pyran-4-yl)methyl)-1H-indazole-5-carboxamide], for which the GI50 (in experiment [1]; in the experiment with TICs (Colon 12); in experiment [2]; in the experiment with TICs (Ovarian 2393A); in the experiment with Breast cancer cells) was less than 100 nM each time. The IC50 on human TTK is less than 100 nM.
Turning to `CC(C)[C@H](NC(=O)c1ccc2[nH]nc(-c3ccc(OC4CCN(C)CC4)cc3)c2c1)c1ccccc1Cl` [Example A273, (S)-N-(1-(2-chlorophenyl)-2-methylpropyl)-3-(4-((1-methylpiperidin-4-yl)oxy)phenyl)-1H-indazole-5-carboxamide], the GI50 (in experiment [1]; in the experiment on TICs (Colon 12); in experiment [2]; in the experiment on TICs (Ovarian 2393A); in the experiment on Breast cancer cells) was less than 100 nM each time. At human TTK, the IC50 is less than 100 nM.
Take `O=C(N[C@H](c1ccccn1)C1CCCC1)c1ccc2[nH]nc(-c3ccc(N4CCCN(C5COC5)CC4)cc3)c2c1` [Example A370, (S)-N-(cyclopentyl(pyridin-2-yl)methyl)-3-(4-(4-(oxetan-3-yl)-1,4-diazepan-1-yl)phenyl)-1H-indazole-5-carboxamide]: the GI50 is less than 100 nM in experiment [1]; less than 100 nM with TICs (Colon 12); less than 100 nM in experiment [2]; 100 to 500 nM with TICs (Ovarian 2393A); less than 100 nM with Breast cancer cells. Moreover, at human TTK, the IC50 is less than 100 nM.
